Results taken from US11883526B2 (priority 2019, dated 2024).

Excerpt: This example provides an LC-MS/MS method for the determination of ketamine and norketamine in sodium heparin human plasma using ketamine-d4 and norketamine-d4 as the respective internal standards (IS).

CN[C@]1(c2ccccc2Cl)CCCCC1=O [esketamine, (S)-2-(2-chlorophenyl)-2-(methylamino)cyclohexanone]
QC sample freeze/thaw stability (freeze (−20° C.)/thaw (room temperature)): 3 freeze (−20° C.)/thaw (room temperature) cycles | QC sample long-term storage stability (human plasma QC sample at −20° C.): 707 days at −20 °C | QC sample bench-top stability (human plasma QC sample, room temperature): 18 hours at room temperature
